Legend:
Caco-2 cells [1] = test: Cyclooxygenase activity assay in Caco-2 cells; assay type: cell-based, human; design: dose or concentration left out as unconfirmed; details: 24 h
Procedure: For determination of Cox activity growth-arrested Caco-2 cells were treated with either 10 ng/ml BFGF or PDGF in the absence and presence of sorbinil […] for 24 h. The cells were harvested and homogenized in cold (4° C.) buffer containing 0.1M Tris-Hcl, pH 7.8 and 1 mM EDTA and the activity was measured in 96 well plate according to the manufacturer's (Cayman Chemical Co., Inc.) instructions. Briefly, 10 μl of standard/sample were incubated in the presence of arachidonic acid and substrate, N,N, N,N-tetra methyl-p-phenylenediamine (TMPD) in a total reaction volume of 210 μl. The Cox peroxidase activity was measured colorimetrically by monitoring appearance of oxidized TMPD at 590 nm by using ELISA reader.

RAW264.7 macrophages = test: LPS- and lipid aldehyde-induced signaling in RAW264.7 macrophages; assay type: cell-based; design: HNE and protein-HNE adduct levels: dose or concentration left out as unconfirmed
Procedure: At the indicated times, cells were harvested for measurement of HNE (FIG. 5A), protein-HNE adducts (FIG. 5B), NF-kB (FIG. 5C), and TNF-a and IL-6 (FIG. 5D) as described in the methods. Cells were growth arrested as described above or transfected with control or AR siRNA oligonucleotides, incubated with GS-HNE-ester, or GS-DHN-ester (1 mM), and harvested for determination of NF-kB (FIG. 5E), membrane-bound total PKC (FIG. 5F).
To determine if GS-DHN serves as a cellular sensor of ROS-induced insults, its effects on phosphorylation events upstream of IKK/NF-κB activation in RAW264.7 macrophages was examined.

BALB/C mice = test: Azoxymethane-induced colon carcinogenesis, ACF analysis; assay type: in vivo, mouse; details: 9 weeks
Procedure: Approximately six weeks old mice were divided into 4 groups (5 mice/group). Mice in groups 3 and 4 were treated with azoxymethane in sterile saline, at a dose of 10 mg/kg body weight i.p. once a week, for 3 weeks. In group 4, mice were treated with AR inhibitor sorbinil (25 mg/kg body weight per day) for entire period after 1 week from the first azoxymethane injection. Mice in groups 1 and 2 received equal volumes of sterile saline and sorbinil, respectively. Similarly AR knock out mice also were treated with azoxymethane (10 mg/kg body weight i.p.) once a week for 3 weeks. After 9 weeks all mice were killed by CO2 euthanasia. The colons were removed, flushed with saline and opened from anus to cecum and fixed flat between two pieces of filter paper in 10% buffered formalin for 24 h. Colons were stained with 0.2% methylene blue dissolved in saline and the numbers of aberrant crypts foci (ACF) were counted under a microscope at 200× magnification.
BALB/C mice were injected with azoxymethane or saline and treated with and with out AR inhibitor, sorbinil as described in Example 2. At the early preneoplastic stage (9 weeks after first azoxymethane injection), mice were sacrificed and their colons were removed and analyzed microscopically for the presence of ACF. […]

A549 cells = test: Western blot of cell cycle regulatory proteins in A549 cells; assay type: cell-based, human; details: various concentrations
Procedure: (§1) To examine expression of any of Cox-1, Cox-2, phospho-PKC-2, GAPDH, E2F1, Cyclin D1, Cyclin E, and iNOS proteins, Western blot analyses were carried by known methods (15). Equal amounts of protein from cell extracts were subjected to 12% SDS-PAGE followed by transfer of proteins to nitrocellulose filters, probing with the indicated antibodies, and the antigen-antibody complex was detected by enhanced chemiluminescence (Pierce, Piscataway, N.J., USA).

Caco-2 cells [2] = test: Western blot of Cox-1 and Cox-2 in Caco-2 cells; assay type: cell-based, human
Procedure: as §1

Caco-2 cells [3] = test: NF-kB-dependent reporter SEAP expression assay; assay type: cell-based, human
Procedure: Caco-2 cells (1.5×10^5 cells/well) were plated in six-well plates and after attachment overnight, were serum-starved in optiMEM medium for 24 h with or without aldose reductase inhibitor, sorbinil (20 μM) and were transiently transfected with pNF-kB-SEAP construct or control plasmid pTALSEAP DNA (Clontech, USA) using the lipofectamine plus reagent. After 6 h of transfection, cells were treated either with 10 ng/ml BFGF or PDGF for 48 h in DMEM medium containing 0.1% FBS. The cell culture medium was then harvested and analyzed for SEAP activity, essentially as described by the manufacturer (Clontech Laboratories, Palo Alto, Calif.), using a 96-well chemiluminescence plate reader and Kodak Image Station 2000R.

C57BL/6 mice [4] = test: LPS-induced cardiac dysfunction, M-mode echocardiography; assay type: in vivo, mouse
Caco-2 cells [5] = test: NF-kB p65 transcription factor (DNA binding) assay; assay type: cell-based, human
Procedure: The cytosolic as well as nuclear extracts were prepared as described earlier (15) and the NF-kB activity was determined by using the colorimetric non-radioactive NF-kB p65 Transcription Factor Assay kit (Chemicon Intl.) as per the supplier's instructions. Briefly, a double stranded biotinylated oligonucleotide containing the consensus sequence for NF-kB binding (5′-[…]-3′; SEQ ID NO: 3) was mixed with nuclear extract and assay buffer. After incubation, the mixture (probe+extract+buffer) was transferred to the streptavidin-coated ELISA kit and read at 450 nm using an ELISA plate reader. For each experiment, triplicate samples were measured for statistical significance.

C57BL/6 mice [6] = test: LPS signaling in the heart (NF-kB, AP1, iNOS, kinases); assay type: in vivo, mouse
From the text: At the indicated times, NF-kB activation (FIG. 8A), AP1 activation with an electrophoretic mobility shift assay (FIG. 8B), iNOS expression by western blotting (FIG. 8C), or PKC activation with a total PKC assay system (FIG. 8D) (SignaTect, Promega), or phosphorylated forms of the indicated kinases by western blotting (FIG. 8E), was detected. Values are means±SEM (N=4). *P<0.001 versus LPS-treated mice. OD, optical density.
In sorbinil-treated mice, however, activation of NF-κB and AP1 decreased by ˜70% at 2 h, and the levels returned to baseline by 24 h. […] These findings are consistent with the downregulation of inflammatory cytokines and chemokines in the serum and heart upon AR inhibition (FIGS. 8A-8D). […] AR inhibition attenuated the phosphorylation of almost all members of this cascade (FIG. 8D-8E). Thus, AR appears to […] the inflammatory cascade by regulating the activation of NF-κB, thereby protecting against cardiovascular collapse in the setting of overwhelming sepsis.

Substance: (S)-6-fluorospiro[chroman-4,4′-imidazolidine]-2,5′-dione [sorbinil]
- BFGF and PDGF-induced Cox activity (Caco-2 cells [1]): abolished
- HNE and protein-HNE adduct levels (RAW264.7 macrophages): increased
- ability of GS-DHN to activate NF-κB (RAW264.7 macrophages): had no effect
- effects of HNE/GS-HNE on IKK-a/b phosphorylation and NF-kB translocation (RAW264.7 macrophages): significantly blunted
- LPS-induced NF-κB and cytokine activation (RAW264.7 macrophages; LPS 1 mg/ml, sorbinil 10 mM): significantly decreased
- azoxymethane-induced Cox-2 and iNOS expression in mice colons (BALB/C mice): inhibits
- number of average ACF/colon (BALB/C mice; azoxymethane+sorbinil 25 mg/kg body weight per day): 2.4±0.5
- E2F-1, Cyclin E and Cyclin D1 expression (A549 cells): significant inhibition
- growth factor-induced Cox-2 protein (Caco-2 cells [2]): attenuated
- levels of constitutive Cox-1 protein (Caco-2 cells [2]): not affected
- GS-DHN-induced Cox-2 expression (Caco-2 cells [2]; sorbinil 24 h, GS-DHN-ester 24 h): had no effect
- HNE and GS-HNE-induced Cox-2 expression (Caco-2 cells [2]; sorbinil 24 h, aldehydes 24 h): significantly prevented
- inhibition of BFGF and PDGF-induced NF-κB-dependent reporter (SEAP) activation (Caco-2 cells [3]; sorbinil 20 μM): > 60%
- NF-κB-SEAP activity (Caco-2 cells [3]; sorbinil alone): did not affect
- percent fractional shortening (FS %) (C57BL/6 mice [4]; at 8 h after LPS, pretreated with sorbinil): recovered significantly
- general activity level of LPS-exposed mice (C57BL/6 mice [4]; within 24 h): normal grooming and other activities
- inhibition of BFGF or PDGF-induced NF-kB DNA binding activity (Caco-2 cells [5]): > 70%
- cardiac iNOS levels (C57BL/6 mice [6]; after LPS): increased only slightly
- phosphorylation of upstream kinases of NF-κB and AP1 (MAPK, IKK, PKC, PLC) in the heart (C57BL/6 mice [6]; after LPS): attenuated
- decrease of cardiac AP1 activation (C57BL/6 mice [6]; at 2 h after LPS): ~70%
- decrease of cardiac NF-κB activation (C57BL/6 mice [6]; at 2 h after LPS): ~70%
- time at which NF-κB and AP1 levels returned to baseline (C57BL/6 mice [6]; mouse, in vivo): ≤ 24 h

From patent US8551997B2, “Structural-based inhibitors of the glutathione binding site in aldose reductase, methods of screening therefor and methods of use” (The Board of Regents of the University of Texas System, priority 2004, dated 2013)
